Experimental data published in the NIST ThermoML archive (doi:10.1007/s10765-010-0862-1).
Numbers after ± are expanded uncertainties.

Experiments:
[1] = mn = molality of the nth substance listed, in mol/kg; details: 101.3 kPa, Liquid
[2] = 101.3 kPa, Liquid

NCCCC(=O)O [4-aminobutanoic acid] + O
[1]
Details	mass density, m1 = 0.02 [kg/m3]	mass density, m1 = 0.04 [kg/m3]	mass density, m1 = 0.06 [kg/m3]	mass density, m1 = 0.08 [kg/m3]	mass density, m1 = 0.1 [kg/m3]	speed of sound, m1 = 0.02 [m/s]	speed of sound, m1 = 0.04 [m/s]	speed of sound, m1 = 0.06 [m/s]	speed of sound, m1 = 0.08 [m/s]	speed of sound, m1 = 0.1 [m/s]
308.15 K	994.6 ± 1.2	995.2 ± 1.2	995.8 ± 1.2	996.4 ± 1.2	997 ± 1.2	1521.8 ± 3.1	1523 ± 3.1	1524.3 ± 3.1	1525.6 ± 3.1	1527 ± 3.1
313.15 K	992.8 ± 1.2	993.4 ± 1.2	994 ± 1.2	994.6 ± 1.2	995.2 ± 1.2	1529.4 ± 3.1	1530.7 ± 3.1	1532 ± 3.2	1533.3 ± 3.2	1534.6 ± 3.2
318.15 K	990.8 ± 1.2	991.4 ± 1.2	992 ± 1.2	992.6 ± 1.2	993.2 ± 1.2	1536.5 ± 3.2	1537.7 ± 3.2	1538.9 ± 3.2	1540.1 ± 3.2	1541.3 ± 3.2

O [water]
[2]
Details	speed of sound [m/s]
313.15 K	1528 ± 3.1
318.15 K	1535.2 ± 3.2

CN(C)C(=N)NC(=N)N.Cl [N,N-dimethylimidodicarbonimidic diamide hydrochloride] + O
[1]
Details	mass density, 308.15 K [kg/m3]	mass density, 313.15 K [kg/m3]	mass density, 318.15 K [kg/m3]	speed of sound, 308.15 K [m/s]	speed of sound, 313.15 K [m/s]	speed of sound, 318.15 K [m/s]
m1 = 0.05	997.5 ± 1.1	996 ± 1.2	994.3 ± 1.3	1527.4 ± 3.1	1534.4 ± 3.2	1539.2 ± 3.2
m1 = 0.1	999.1 ± 1.2	997.2 ± 1.2	995.5 ± 1.2	1529 ± 3.1	1537.8 ± 3.2	1541 ± 3.2
m1 = 0.15	1000.2 ± 1.1	998.8 ± 1.2	997.2 ± 1.2	1530 ± 3.1	1541.2 ± 3.2	1543.8 ± 3.2
